Results: patent EP2151441A1, “Beta-carbolin-derivates as substrates for an enzyme” (Julius-Maximilians-Universität Würzburg, priority 2008, dated 2010)
Where two headings read alike, the source gives them in different places.

Columns and labels:
[1] = target: T1, CYP3A4 (Homo sapiens, UniProt P08684); conditions: cited from earlier work; for Km: according to US 6,207,404 (BFC, BzRes) or Walsky and Obach 2004 (Midazolam)
[2] = target: T2, recombinant human CPY3A4 (Homo sapiens, UniProt P08684); test: Catalytic activity of CYP3A4 for the reaction with substance 1a; type: biochemical
T2 construct: purchased BD Biosciences (Supersomes)
Procedure: After incubation for 20 minutes at 37°C the metabolite 1b was quantified using liquid chromatography followed by mass spectrometry. For this reaction 4.5 pmol/min/pmol CYP3A4 could be determined as activity of the enzyme. According to US 6,207,404 the activity of CYP3A4 for the reaction of BFC at a concentration of 50 µM is about 1.5 pmol/min/pmol CYP3A4. […] For the determination of the catalytic activity of other CYP-enzymes with respect to the reaction of substance 1a 2 µM of substance 1a were contacted with 15 pmol/ml CYP enzyme (Supersomes®, BD Biosciences) and 2 mM NADPH in 100 mM potassium phosphate puffer (pH 7.4; 3 mM MgCl2) with the exception of CYP3A4 that was used at a concentration of 5 pmol/ml.

[3] = target: T3, CYP1B1 (Homo sapiens, UniProt Q16678); test: Catalytic activity of other CYP enzymes for the reaction of substance 1a; type: biochemical; conditions: 2 µM substance 1a, 15 pmol/ml CYP enzyme, Fig. 2
T3 construct: purchased BD Biosciences (Supersomes)
T3 sequence (Q16678 1-543): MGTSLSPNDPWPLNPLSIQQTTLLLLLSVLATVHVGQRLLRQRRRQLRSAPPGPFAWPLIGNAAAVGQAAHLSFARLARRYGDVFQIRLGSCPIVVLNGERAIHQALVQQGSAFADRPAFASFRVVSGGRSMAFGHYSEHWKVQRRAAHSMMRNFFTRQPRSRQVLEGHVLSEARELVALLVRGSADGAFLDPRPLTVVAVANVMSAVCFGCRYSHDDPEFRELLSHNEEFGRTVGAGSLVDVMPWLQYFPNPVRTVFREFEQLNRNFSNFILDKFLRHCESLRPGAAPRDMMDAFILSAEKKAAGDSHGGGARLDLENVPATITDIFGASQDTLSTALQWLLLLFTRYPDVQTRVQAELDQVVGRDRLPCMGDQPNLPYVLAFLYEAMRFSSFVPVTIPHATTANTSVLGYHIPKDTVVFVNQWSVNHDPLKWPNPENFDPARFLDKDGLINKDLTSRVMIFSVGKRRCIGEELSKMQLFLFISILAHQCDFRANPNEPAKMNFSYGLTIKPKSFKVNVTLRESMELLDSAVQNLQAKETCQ
Procedure: (§1) For the determination of the catalytic activity of other CYP-enzymes with respect to the reaction of substance 1a 2 µM of substance 1a were contacted with 15 pmol/ml CYP enzyme (Supersomes®, BD Biosciences) and 2 mM NADPH in 100 mM potassium phosphate puffer (pH 7.4; 3 mM MgCl2) with the exception of CYP3A4 that was used at a concentration of 5 pmol/ml.

[4] = target: T4, CYP2D6 (Homo sapiens, UniProt P10635); test: as above; type: biochemical; conditions: 2 µM substance 1a, 15 pmol/ml CYP enzyme, Fig. 2
T4 construct: purchased BD Biosciences (Supersomes)
Procedure: as §1

[5] = target: T1, CYP3A4; test: Determination of Km and Vmax of the CYP3A4-catalyzed O-dealkylation reaction (LC-MS quantification of reaction product 1b); type: biochemical; parameters: purchased BD Biosciences (Supersomes); conditions: Vmax comparison with BFC
Procedure: The Michaelis-Menten constant (Km) and the maximal reaction velocity (Vmax) are important parameters for inhibition assays. To determine the inhibitory activity of test compounds the substrate concentration in the assay should be about the Km value. […] After incubation for 20 minutes at 37°C the reaction product 1b was quantified using mass spectrometry after liquid chromatography. […] For the calculation of Km and Vmax the Sigma Plot 10.0 software with enzyme kinetic module (SPSS, Inc., Chicago, IL, USA) was used.

[6] = according to US 6,207,404 (BzRes) or Walsky and Obach 2004 (Midazolam)

T2 sequence (P08684 whole entry): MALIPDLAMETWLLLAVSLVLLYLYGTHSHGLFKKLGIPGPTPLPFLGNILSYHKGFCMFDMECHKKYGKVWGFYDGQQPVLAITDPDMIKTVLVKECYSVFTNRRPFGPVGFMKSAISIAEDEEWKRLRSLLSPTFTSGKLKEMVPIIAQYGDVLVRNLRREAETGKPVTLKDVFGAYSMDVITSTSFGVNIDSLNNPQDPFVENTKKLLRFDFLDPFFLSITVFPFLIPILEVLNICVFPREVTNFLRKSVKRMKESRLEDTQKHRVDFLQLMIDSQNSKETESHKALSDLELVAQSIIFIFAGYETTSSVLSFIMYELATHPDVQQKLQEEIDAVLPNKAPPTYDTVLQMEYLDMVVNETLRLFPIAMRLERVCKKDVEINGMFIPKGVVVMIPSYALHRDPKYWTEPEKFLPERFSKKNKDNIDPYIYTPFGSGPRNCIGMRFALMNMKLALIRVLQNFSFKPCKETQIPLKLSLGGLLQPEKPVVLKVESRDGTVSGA
T1 sequence (P08684 whole entry): as above
T4 sequence (P10635 whole entry): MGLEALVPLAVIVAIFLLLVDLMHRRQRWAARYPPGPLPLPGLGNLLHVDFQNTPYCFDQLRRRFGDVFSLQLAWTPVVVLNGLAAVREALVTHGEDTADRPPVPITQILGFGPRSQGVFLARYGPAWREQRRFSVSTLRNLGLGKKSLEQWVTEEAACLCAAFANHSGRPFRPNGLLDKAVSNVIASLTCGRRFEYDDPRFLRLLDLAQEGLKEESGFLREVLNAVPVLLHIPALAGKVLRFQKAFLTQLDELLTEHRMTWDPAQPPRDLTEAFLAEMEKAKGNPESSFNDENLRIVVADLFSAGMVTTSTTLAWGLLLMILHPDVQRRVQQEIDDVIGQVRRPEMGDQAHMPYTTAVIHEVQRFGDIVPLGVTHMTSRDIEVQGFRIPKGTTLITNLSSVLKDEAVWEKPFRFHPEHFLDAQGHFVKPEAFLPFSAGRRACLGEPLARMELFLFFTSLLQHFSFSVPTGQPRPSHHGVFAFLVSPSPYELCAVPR

O=c1cc(C(F)(F)F)c2ccc(OCc3ccccc3)cc2o1 [BFC, 7-benzyloxy-4-trifluoromethylcumarin]
activity of CYP3A4 for the reaction of BFC ([1]; BFC at a concentration of 50 µM, according to US 6,207,404): about 1.5 pmol/min/pmol CYP3A4 | Km [1]: > 200 µM | Vmax ([1]; at 40 µM BFC, according to US 6,207,404): 1.5 (at 40 µM BFC) pmol/min/pmol CYP3A4

Cc1c2[nH]c3cc(OCc4ccccc4)ccc3c2cc[n+]1Cc1ccccc1.O=C([O-])C(F)(F)F [Substance 1a, 2-benzyl-7-benzyloxy-1-methyl-9H-pyrido[3,4-b]indol-2-ium trifluoroacetate salt]
activity of the enzyme relative to the reaction of BFC ([2]; 2 µM 1a versus 50 µM BFC): 3 fold | activity of the enzyme ([2]; 2 µM substance 1a, 5 pmol/ml CYP3A4, 2 mM NADPH, 20 minutes at 37°C): 4.5 pmol/min/pmol CYP3A4 | reaction of substrate 1a to reaction product 1b catalyzed by enzyme ([2]; 2 µM substance 1a, CYP3A4 at 5 pmol/ml, Fig. 2): could be catalyzed | reaction of substrate 1a to reaction product 1b catalyzed by enzyme [3]: could be catalyzed | reaction of substrate 1a to reaction product 1b catalyzed by enzyme [4]: could be catalyzed | reaction velocity relative to BFC [5]: about 5 fold

O=c1ccc2nc3ccc(OCc4ccccc4)cc3oc-2c1 [BzRes, benzyloxyresorufin]
Km [1]: 38 µM | Vmax [1, 6]: 0.3 pmol/min/pmol CYP3A4

Cc1ncc2n1-c1ccc(Cl)cc1C(c1ccccc1F)=NC2 [Midazolam]
Km [1]: 0.6 µM | Vmax [1, 6]: 16.3 pmol/min/pmol CYP3A4
